Experimental data as given in patent US20240391948A1, “NOVEL COMPOUND THAT INHIBITS TNF-ALPHA GENERATION AND INFLAMMASOME ACTIVITY AND PREPARATION METHOD THEREFOR” (SHAPERON INC., priority 2021, published 2024).

Assays:
Type in all cases: cell-based
[1] = tested on: U937 cells (human monocytic cell line); assay: Pam2CSK4-induced TNF-α secretion inhibition in PMA-differentiated U937 cells; details: U-937, U937 cells differentiated with PMA, read-out: TNF-α production inhibition grade (IC50)
Protocol: (§1) To evaluate anti-inflammatory efficacy, U937 cells (human monocytic cell line) were differentiated into macrophages using PMA (phorbol 12-myristate 13-acetate) and then induced an inflammatory response with Pam2CSK4 (Pam2CysSerLys4) or BzATP (2′(3′)—O-(4-Benzoylbenzoyl)adenosine 5′-triphosphate), the efficacy of taurine-bile acid derivatives in suppressing inflammatory cytokine (IL-1β, TNF-α) production was measured.
(§2) Using PMA, U937 cells were differentiated into macrophages, and the extent of TNF-α secretion inhibition was measured in an experimental group where taurine-bile acid derivatives was treated, followed by induction of inflammatory response with Pam2CSK4, and in the experimental group in which an inflammatory response was induced with BzATP, the extent to which IL-1β secretion among cytokines was suppressed was measured.
(§3) The ability of taurine-bile acid derivatives to inhibit cytokine production was expressed in terms of IC50 (μM) values. The standards for TNF α inhibition ability are A: less than 0.5, B: 0.5 to less than 1.0, C: 1.0 to less than 2.0, D: 2.0 or more, and the IL-1β inhibition ability grade standards are A: less than 0.05, B: 0.05 to less than 0.10, C: 0.10 or more and less than 0.20, D: 0.20 or more.

[2] = tested on: U937 cells (human monocytic cell line); assay: BzATP-induced IL-1β secretion inhibition in PMA-differentiated U937 cells; details: U-937, U937 cells differentiated with PMA, read-out: IL-1β production inhibition grade (IC50)
Protocol: as §1, §2, §3

[3] = tested on: J774A.1 (Mouse BALB/c monocyte macrophage cell line) cells; assay: LPS-induced TNF-α secretion inhibition in J774A.1 cells; details: J774.A1, 1 μM compound, graded compared to taurodeoxycholic acid (positive control), read-out: TNF-α production inhibition grade
Protocol: (§4) To evaluate anti-inflammatory efficacy, an inflammatory response was induced in J774A.1 (Mouse BALB/c monocyte macrophage cell line) cells derived from mouse macrophages by LPS (lipopolysaccharide) and LPS+ATP (adenosine triphosphate), and the efficacy of taurine-bile acid derivatives to inhibit the production of inflammatory cytokines (IL-1β, TNF-α) was measured. After treating J774A.1 cells with 1 μM of a taurine-bile acid derivative, the degree to which the secretion of TNF-α among cytokines was suppressed was measured in the experimental group in which an inflammatory response was induced by LPS, and the extent to which IL-1β secretion among cytokines was suppressed was measured in the experimental group in which an inflammatory response was induced with LPS+ATP. The ability of taurine-bile acid derivatives to inhibit cytokine production was graded compared to taurodeoxycholic acid, a positive control. The grading criteria are A: over 100%, B: over 50% and under 100%, C: between 20% and under 50%, and D: under 20%.

[4] = tested on: J774A.1 (Mouse BALB/c monocyte macrophage cell line) cells; assay: LPS+ATP-induced IL-1β secretion inhibition in J774A.1 cells; details: J774.A1, 1 μM compound, graded compared to taurodeoxycholic acid (positive control), read-out: IL-1β production inhibition grade
Protocol: as §4

Compound | IC50 [1] | IC50 [2] | inhibition at 1 µM [3] | inhibition at 1 µM [4]
C[C@H](CCC(=O)NC[C@H](C)S(=O)(=O)O)[C@H]1CC[C@H]2[C@@H]3[C@H](O)C[C@@H]4C[C@H](O)CC[C@]4(C)[C@H]3C[C@H](O)[C@]12C [NC20022] | 1000 to 2000 nM | < 50 nM | < 20% | < 20%
C[C@H](CCC(=O)N[C@H](Cc1ccccc1)CS(=O)(=O)O)[C@H]1CC[C@H]2[C@@H]3[C@H](O)C[C@@H]4C[C@H](O)CC[C@]4(C)[C@H]3C[C@H](O)[C@]12C [NC20015] | < 500 nM | < 50 nM | < 20% | > 100%
C[C@H](CCC(=O)N[C@@H](C)CS(=O)(=O)O)[C@H]1CC[C@H]2[C@@H]3CC[C@@H]4C[C@H](O)CC[C@]4(C)[C@H]3C[C@H](O)[C@]12C [NC10043] | < 500 nM | 100 to 200 nM | < 20% | > 100%
CC[C@H]1[C@@H](O)[C@@H]2[C@H](CC[C@]3(C)[C@@H]([C@H](C)CCC(=O)N[C@H](CS(=O)(=O)O)c4ccccc4)CC[C@@H]23)[C@@]2(C)CC[C@@H](O)C[C@@H]12 [NC40018] | < 500 nM | < 50 nM | < 20% | > 100%
C[C@H](CCC(=O)N[C@@H](CS(=O)(=O)O)c1ccccc1)[C@H]1CC[C@H]2[C@@H]3CC[C@@H]4CC(=O)CC[C@]4(C)[C@H]3CC[C@]12C [NC30019] | 1000 to 2000 nM | ≥ 200 nM | < 20% | < 20%
C[C@H](CCC(=O)N1CCC(CCS(=O)(=O)O)CC1)[C@H]1CC[C@H]2[C@@H]3CC[C@@H]4C[C@H](O)CC[C@]4(C)[C@H]3C[C@H](O)[C@]12C [NC10008] | < 500 nM | < 50 nM | > 100% | > 100%
C[C@H](CCC(=O)N(CCS(=O)(=O)O)Cc1cccnc1)[C@H]1CC[C@H]2[C@@H]3CC[C@@H]4C[C@H](O)CC[C@]4(C)[C@H]3CC[C@]12C [NC10092] | ≥ 2000 nM | 50 to 100 nM | – | –
C[C@H](CCC(=O)N1CCC[C@H]1CS(=O)(=O)O)[C@H]1CC[C@H]2[C@@H]3CC[C@@H]4CC(=O)CC[C@]4(C)[C@H]3CC[C@]12C [NC30021] | 500 to 1000 nM | 50 to 100 nM | – | –
C[C@H](CCC(=O)N[C@@H]1CCCC[C@@H]1S(=O)(=O)O)[C@H]1CC[C@H]2[C@@H]3CC[C@@H]4CC(=O)CC[C@]4(C)[C@H]3CC[C@]12C [NC30026] | < 500 nM | ≥ 200 nM | – | –
C[C@H](CCC(=O)N(CCS(=O)(=O)O)C1CCOCC1)[C@H]1CC[C@H]2[C@@H]3CC[C@@H]4C[C@H](O)CC[C@]4(C)[C@H]3C[C@H](O)[C@]12C [NC10025] | 1000 to 2000 nM | 50 to 100 nM | – | –
CC[C@H]1[C@@H](O)[C@@H]2[C@H](CC[C@]3(C)[C@@H]([C@H](C)CCC(=O)N[C@H](CS(=O)(=O)O)C(C)C)CC[C@@H]23)[C@@]2(C)CC[C@@H](O)C[C@@H]12 [NC40016] | 500 to 1000 nM | ≥ 200 nM | – | –
C[C@H](CCC(=O)NCCCO)[C@H]1CC[C@H]2[C@@H]3CC[C@@H]4C[C@H](O)CC[C@]4(C)[C@H]3C[C@H](O)[C@]12C [NC10021] | 1000 to 2000 nM | 50 to 100 nM | – | –
C[C@H](CCC(=O)N(CCS(=O)(=O)O)Cc1cccnc1)[C@H]1CC[C@H]2[C@@H]3CC[C@@H]4CC(=O)CC[C@]4(C)[C@H]3CC[C@]12C [NC30036] | 1000 to 2000 nM | ≥ 200 nM | – | –
C[C@H](CCC(=O)N(CCS(=O)(=O)O)Cc1ccccc1)[C@H]1CC[C@H]2[C@@H]3CC[C@@H]4CC(=O)CC[C@]4(C)[C@H]3CC[C@]12C [NC30005] | 500 to 1000 nM | ≥ 200 nM | – | –
C[C@H](CCC(=O)N(CCS(=O)(=O)O)c1ccccc1)[C@H]1CC[C@H]2[C@@H]3CC[C@@H]4C[C@H](O)CC[C@]4(C)[C@H]3CC[C@]12C [NC10093] | ≥ 2000 nM | 100 to 200 nM | – | –
CC[C@H]1[C@@H](O)[C@@H]2[C@H](CC[C@]3(C)[C@@H]([C@H](C)CCC(=O)N(CCS(=O)(=O)O)Cc4ccccc4)CC[C@@H]23)[C@@]2(C)CC[C@@H](O)C[C@@H]12 [NC40005] | ≥ 2000 nM | ≥ 200 nM | – | –
C[C@H](CCC(=O)NC1(CS(=O)(=O)O)CC1)[C@H]1CC[C@H]2[C@@H]3CC[C@@H]4CC(=O)CC[C@]4(C)[C@H]3CC[C@]12C [NC30032] | 500 to 1000 nM | ≥ 200 nM | – | –
CC[C@H]1[C@@H](O)[C@@H]2[C@H](CC[C@]3(C)[C@@H]([C@H](C)CCC(=O)N[C@@H]4CCCC[C@@H]4S(=O)(=O)O)CC[C@@H]23)[C@@]2(C)CC[C@@H](O)C[C@@H]12 [NC40026] | 500 to 1000 nM | 50 to 100 nM | – | –
CC[C@H]1[C@@H](O)[C@@H]2[C@H](C[C@H](O)[C@]3(C)[C@@H]([C@H](C)CCC(=O)N(CCS(=O)(=O)O)Cc4ccccc4)CC[C@@H]23)[C@@]2(C)CC[C@@H](O)C[C@@H]12 [NC50005] | 1000 to 2000 nM | ≥ 200 nM | – | –
C[C@H](CCC(=O)N[C@H](CS(=O)(=O)O)c1ccccc1)[C@H]1CC[C@H]2[C@@H]3CC[C@@H]4C[C@H](O)CC[C@]4(C)[C@H]3C[C@H](O)[C@]12C [NC10034] | 500 to 1000 nM | 50 to 100 nM | – | –
C[C@H](CCC(=O)N[C@@H](CO)CS(=O)(=O)O)[C@H]1CC[C@H]2[C@@H]3CC[C@@H]4CC(=O)CC[C@]4(C)[C@H]3CC[C@]12C [NC30024] | 1000 to 2000 nM | ≥ 200 nM | – | –
C[C@H](CCC(=O)NCCCO)[C@H]1CC[C@H]2[C@@H]3[C@H](O)C[C@@H]4C[C@H](O)CC[C@]4(C)[C@H]3C[C@H](O)[C@]12C [NC20003] | – | 50 to 100 nM | 50 to 100% | 20 to 50%
CC[C@H]1[C@@H](O)[C@@H]2[C@H](C[C@H](O)[C@]3(C)[C@@H]([C@H](C)CCC(=O)N4CCC[C@H](S(=O)(=O)O)C4)CC[C@@H]23)[C@@]2(C)CC[C@@H](O)C[C@@H]12 [NC50009] | 1000 to 2000 nM | 100 to 200 nM | – | –
CC[C@H]1[C@@H](O)[C@@H]2[C@H](C[C@H](O)[C@]3(C)[C@@H]([C@H](C)CCC(=O)N[C@@H](CS(=O)(=O)O)C(C)C)CC[C@@H]23)[C@@]2(C)CC[C@@H](O)C[C@@H]12 [NC50017] | 1000 to 2000 nM | 50 to 100 nM | – | –
CC[C@H]1[C@@H](O)[C@@H]2[C@H](C[C@H](O)[C@]3(C)[C@@H]([C@H](C)CCC(=O)NC[C@@H](C)S(=O)(=O)O)CC[C@@H]23)[C@@]2(C)CC[C@@H](O)C[C@@H]12 [NC50023] | ≥ 2000 nM | ≥ 200 nM | – | –
CC[C@H]1[C@@H](O)[C@@H]2[C@H](C[C@H](O)[C@]3(C)[C@@H]([C@H](C)CCC(=O)N[C@@H](Cc4ccccc4)CS(=O)(=O)O)CC[C@@H]23)[C@@]2(C)CC[C@@H](O)C[C@@H]12 [NC50014] | 500 to 1000 nM | < 50 nM | – | –
CC[C@H]1[C@@H](O)[C@@H]2[C@H](CC[C@]3(C)[C@@H]([C@H](C)CCC(=O)NCCCO)CC[C@@H]23)[C@@]2(C)CC[C@@H](O)C[C@@H]12 [NC40003] | ≥ 2000 nM | ≥ 200 nM | – | –
CC[C@H]1[C@@H](O)[C@@H]2[C@H](C[C@H](O)[C@]3(C)[C@@H]([C@H](C)CCC(=O)NCCC(=O)O)CC[C@@H]23)[C@@]2(C)CC[C@@H](O)C[C@@H]12 [NC50002] | ≥ 2000 nM | ≥ 200 nM | – | –
CC[C@H]1[C@@H](O)[C@@H]2[C@H](C[C@H](O)[C@]3(C)[C@@H]([C@H](C)CCC(=O)N4CCC(S(=O)(=O)O)CC4)CC[C@@H]23)[C@@]2(C)CC[C@@H](O)C[C@@H]12 [NC50011] | ≥ 2000 nM | ≥ 200 nM | – | –
CC(C)N(CCS(=O)(=O)O)C(=O)CC[C@@H](C)[C@H]1CC[C@H]2[C@@H]3CC[C@@H]4CC(=O)CC[C@]4(C)[C@H]3CC[C@]12C [NC30007] | < 500 nM | ≥ 200 nM | – | –
